Test results published in US9873709B2 (priority 2013, dated 2018).
Structures can show the parent of a compound that is named as a salt.

Each compound was assayed on JAK1-dependent STAT6 phosphorylation downstream of IL-13 stimulation in TF-1 human erythroleukemia cells (assay: cells). Conditions: TF-1, read-out: IL-13-pSTAT6 IC50.

IC50 | Structure (SMILES)
72.3 nM | O=C(CCC(F)(F)F)N1CC=C(c2cccn3nc(Nc4ccc(C(=O)N5CCCC6(CCCNC6)C5)cc4)nc23)CC1 (stereo not drawn) [Example 2-443, 1-[4-[2-[4-(2,8-diazaspiro[5.5]undecane-2-carbonyl)anilino]-[1,2,4]triazolo[1,5-a]pyridin-8-yl]-3,6-dihydro-2H-pyridin-1-yl]-4,4,4-trifluoro-butan-1-one]
84.7 nM | O=C(NCCN1CCC(O)CC1)c1ccc(Nc2nc3c(C4=CCN(C(=O)CCC(F)(F)F)CC4)cccn3n2)cc1 [Example 2-100, N-[2-(4-hydroxy-1-piperidyl)ethyl]-4-[[8-[1-(4,4,4-trifluorobutanoyl)-3,6-dihydro-2H-pyridin-4-yl]-[1,2,4]triazolo[1,5-a]pyridin-2-yl]amino]benzamide]
78.8 nM | O=C(NC1CCCNC1)c1ccc(Nc2nc3c(C4=CCN(C(=O)CCC(F)(F)F)CC4)cccn3n2)cc1 (stereo not drawn) [Example 2-137, N-(3-piperidyl)-4-[[8-[1-(4,4,4-trifluorobutanoyl)-3,6-dihydro-2H-pyridin-4-yl]-[1,2,4]triazolo[1,5-a]pyridin-2-yl]amino]benzamide]
38.4 nM | O=C(CCC(F)(F)F)N1CC=C(c2cccn3nc(Nc4ccc(C(=O)N5CCC6(CC5)CNCCO6)cc4)nc23)CC1 [Example 2-380, 4,4,4-trifluoro-1-[4-[2-[4-(1-oxa-4,9-diazaspiro[5.5]undecane-9-carbonyl)anilino]-[1,2,4]triazolo[1,5-a]pyridin-8-yl]-3,6-dihydro-2H-pyridin-1-yl]butan-1-one]
3.9 nM | O=C(CCC(F)(F)F)N1CC=C(c2cccn3nc(Nc4ccc(C(=O)N5CCN(CC6CCCO6)CC5)cc4)nc23)CC1 (stereo not drawn) [Example 2-340, 4,4,4-trifluoro-1-[4-[2-[4-[4-(tetrahydrofuran-2-ylmethyl)piperazine-1-carbonyl]anilino]-[1,2,4]triazolo[1,5-a]pyridin-8-yl]-3,6-dihydro-2H-pyridin-1-yl]butan-1-one]
154 nM | O=C(NCC1CCNC1)c1ccc(Nc2nc3c(C4=CCN(C(=O)CCC(F)(F)F)CC4)cccn3n2)cc1 (stereo not drawn) [Example 2-444, N-(pyrrolidin-3-ylmethyl)-4-[[8-[1-(4,4,4-trifluorobutanoyl)-3,6-dihydro-2H-pyridin-4-yl]-[1,2,4]triazolo[1,5-a]pyridin-2-yl]amino]benzamide]
5.5 nM | O=C(NCCN1CCCCC1)c1ccc(Nc2nc3c(C4=CCN(C(=O)CCC(F)(F)F)CC4)cccn3n2)cc1 [Example 2-455, N-[2-(1-piperidyl)ethyl]-4-[[8-[1-(4,4,4-trifluorobutanoyl)-3,6-dihydro-2H-pyridin-4-yl]-[1,2,4]triazolo[1,5-a]pyridin-2-yl]amino]benzamide]
61.9 nM | O=C(N[C@H]1CCCNC1)c1ccc(Nc2nc3c(C4=CCN(C(=O)CCC(F)(F)F)CC4)cccn3n2)cc1 [Example 2-138, N-[(3S)-3-piperidyl]-4-[[8-[1-(4,4,4-trifluorobutanoyl)-3,6-dihydro-2H-pyridin-4-yl]-[1,2,4]triazolo[1,5-a]pyridin-2-yl]amino]benzamide]
1750 nM | CN1CCC(N(C)C(=O)c2ccc(Nc3nc4c(C5=CCN(C(=O)N6CC7(COC7)C6)CC5)cccn4n3)cc2)CC1 [Example 2-286, N-methyl-N-(1-methyl-4-piperidyl)-4-[[8-[1-(2-oxa-6-azaspiro[3.3]heptane-6-carbonyl)-3,6-dihydro-2H-pyridin-4-yl]-[1,2,4]triazolo[1,5-a]pyridin-2-yl]amino]benzamide]
179 nM | CN1CCC(N(C)C(=O)c2ccc(Nc3nc4c(N5CCC(CC(=O)O)(c6ccc(Cl)cc6)CC5)cccn4n3)cc2)CC1 [Example 1-301, 2-[4-(4-chlorophenyl)-1-[2-[4-[methyl-(1-methyl-4-piperidyl)carbamoyl]anilino]-[1,2,4]triazolo[1,5-a]pyridin-8-yl]-4-piperidyl]acetic acid]
104 nM | O=C(NC1CC2(CCNCC2)C1)c1ccc(Nc2nc3c(C4=CCN(C(=O)CCC(F)(F)F)CC4)cccn3n2)cc1 [Example 2-322, N-(7-azaspiro[3.5]nonan-2-yl)-4-[[8-[1-(4,4,4-trifluorobutanoyl)-3,6-dihydro-2H-pyridin-4-yl]-[1,2,4]triazolo[1,5-a]pyridin-2-yl]amino]benzamide]
11.7 nM | CN1CCC(OC(=O)c2ccc(Nc3nc4c(C5=CCN(C(=O)CCC(F)(F)F)CC5)cccn4n3)cc2)CC1 [Example 2-264, (1-methyl-4-piperidyl) 4-[[8-[1-(4,4,4-trifluorobutanoyl)-3,6-dihydro-2H-pyridin-4-yl]-[1,2,4]triazolo[1,5-a]pyridin-2-yl]amino]benzoate]
163 nM | CN1CCC(N(C)C(=O)c2ccc(Nc3nc4c(C5=CCN(C(=O)CC(C)(C)O)CC5)cccn4n3)cc2)CC1 [Example 2-3, 4-[[8-[1-(3-hydroxy-3-methyl-butanoyl)-3,6-dihydro-2H-pyridin-4-yl]-[1,2,4]triazolo[1,5-a]pyridin-2-yl]amino]-N-methyl-N-(1-methyl-4-piperidyl)benzamide]
232 nM | CCOC(=O)N1CC=C(c2cccn3nc(Nc4ccc(C(=O)N[C@H]5[C@@H]6CNC[C@@H]65)cc4)nc23)CC1 [Example 2-434, ethyl 4-[2-[4-[[(1S,5R)-3-azabicyclo[3.10]hexan-6-yl]carbamoyl]anilino]-[1,2,4]triazolo[1,5-a]pyridin-8-yl]-3,6-dihydro-2H-pyridine-1-carboxylate]
120 nM | O=C(CCC(F)(F)F)N1CC=C(c2cccn3nc(Nc4ccc(C(=O)N5CC[C@H]6CNC[C@H]65)cc4)nc23)CC1 [Example 2-320, 1-[4-[2-[4-[(3aS,6aS)-3,3a,4,5,6,6a-hexahydro-2H-pyrrolo[2,3-c]pyrrole-1-carbonyl]anilino]-[1,2,4]triazolo[1,5-a]pyridin-8-yl]-3,6-dihydro-2H-pyridin-1-yl]-4,4,4-trifluoro-butan-1-one]
14.8 nM | CCOC(=O)N1CC=C(c2cccn3nc(Nc4ccc(C(=O)NC(C)c5cccc(C)n5)cc4)nc23)CC1 (stereo not drawn) [Example 2-170, ethyl 4-[2-[4-[1-(6-methyl-2-pyridyl)ethylcarbamoyl]anilino]-[1,2,4]triazolo[1,5-a]pyridin-8-yl]-3,6-dihydro-2H-pyridine-1-carboxylate]
34 nM | CN1CCC(N(C)C(=O)c2ccc(Nc3nc4c(C5=CCN(C(=O)OC6CC6)CC5)cccn4n3)cc2)CC1 [Example 2-2, cyclopropyl 4-[2-[4-[methyl-(1-methyl-4-piperidyl)carbamoyl]anilino]-[1,2,4]triazolo[1,5-a]pyridin-8-yl]-3,6-dihydro-2H-pyridine-1-carboxylate]
82.4 nM | CN(CCN)C(=O)c1ccc(Nc2nc3c(C4=CCN(C(=O)CCC(F)(F)F)CC4)cccn3n2)cc1 [Example 2-441, N-(2-aminoethyl)-N-methyl-4-[[8-[1-(4,4,4-trifluorobutanoyl)-3,6-dihydro-2H-pyridin-4-yl]-[1,2,4]triazolo[1,5-a]pyridin-2-yl]amino]benzamide]
124 nM | CN1CCC(N(C)C(=O)c2ccc(Nc3nc4c(C5=CCN(C(=O)C6CC6)CC5)cccn4n3)cc2)CC1 [Example 2-409, 4-[[8-[1-(cyclopropanecarbonyl)-3,6-dihydro-2H-pyridin-4-yl]-[1,2,4]triazolo[1,5-a]pyridin-2-yl]amino]-N-methyl-N-(1-methyl-4-piperidyl)benzamide]
157 nM | CCOC(=O)N1CC=C(c2cccn3nc(Nc4ccc(C(=O)NCCNC)cc4)nc23)CC1 [Example 2-230, ethyl 4-[2-[4-[2-(methylamino)ethylcarbamoyl]anilino]-[1,2,4]triazolo[1,5-a]pyridin-8-yl]-3,6-dihydro-2H-pyridine-1-carboxylate]
21.1 nM | CN1CCCCC1C1CCCN1C(=O)c1ccc(Nc2nc3c(N4CCC(O)(c5ccc(Cl)cc5)CC4)cccn3n2)cc1 (stereo not drawn) [Example 1-52, [4-[[8-[4-(4-chlorophenyl)-4-hydroxy-1-piperidyl]-[1,2,4]triazolo[1,5-a]pyridin-2-yl]amino]phenyl]-[2-(1-methyl-2-piperidyl)pyrrolidin-1-yl]methanone]
33.5 nM | CN1CCCC1CCNC(=O)c1ccc(Nc2nc3c(C4=CCN(C(=O)CCC(F)(F)F)CC4)cccn3n2)cc1 (stereo not drawn) [Example 2-48, N-[2-(1-methylpyrrolidin-2-yl)ethyl]-4-[[8-[1-(4,4,4-trifluorobutanoyl)-3,6-dihydro-2H-pyridin-4-yl]-[1,2,4]triazolo[1,5-a]pyridin-2-yl]amino]benzamide]
422 nM | CN1CCC(N(C)C(=O)c2ccc(Nc3nc4c(C5=CCN(C(=O)C6CCOC6)CC5)cccn4n3)cc2)CC1 (stereo not drawn) [Example 2-107, N-methyl-N-(1-methyl-4-piperidyl)-4-[[8-[1-(tetrahydrofuran-3-carbonyl)-3,6-dihydro-2H-pyridin-4-yl]-[1,2,4]triazolo[1,5-a]pyridin-2-yl]amino]benzamide; hydrochloride]
295 nM | O=C(CCC(F)(F)F)N1CC=C(c2cccn3nc(Nc4ccc(C(=O)N5CCC6(CCN6)CC5)cc4)nc23)CC1 [Example 2-197, 1-[4-[2-[4-(1,7-diazaspiro[3.5]nonane-7-carbonyl)anilino]-[1,2,4]triazolo[1,5-a]pyridin-8-yl]-3,6-dihydro-2H-pyridin-1-yl]-4,4,4-trifluoro-butan-1-one]
26 nM | CC(C)N1CCC(CN(C)C(=O)c2ccc(Nc3nc4c(C5=CCN(C(=O)CCC(F)(F)F)CC5)cccn4n3)cc2)C1 (stereo not drawn) [Example 2-463, N-[(1-isopropylpyrrolidin-3-yl)methyl]-N-methyl-4-[[8-[1-(4,4,4-trifluorobutanoyl)-3,6-dihydro-2H-pyridin-4-yl]-[1,2,4]triazolo[1,5-a]pyridin-2-yl]amino]benzamide]
8.9 nM | CCOC(=O)N1CC=C(c2cccn3nc(Nc4ccc(C(=O)N(C)Cc5ccncc5)cc4)nc23)CC1 [Example 2-361, ethyl 4-[2-[4-[methyl(4-pyridylmethyl)carbamoyl]anilino]-[1,2,4]triazolo[1,5-a]pyridin-8-yl]-3,6-dihydro-2H-pyridine-1-carboxylate]
79.4 nM | O=C(c1ccc(Nc2nc3c(N4CCC(O)(c5ccc(Cl)cc5)CC4)cccn3n2)cc1)N1CCC2(CCCN2)CC1 [Example 1-226, [4-[[8-[4-(4-chlorophenyl)-4-hydroxy-1-piperidyl]-[1,2,4]triazolo[1,5-a]pyridin-2-yl]amino]phenyl]-(1,8-diazaspiro[4.5]decan-8-yl)methanone]
